Source: patent publication US9364496B2 (ONCOGENEX TECHNOLOGIES INC., priority 2013, dated 2016)
Values joined by “and” are separate entries in the source; they are usually repeats but may differ in a detail not shown here. Equal entries are not always repeated. “Also recorded” adds a separate entry of the source. Marks after values point to notes of the source that are not given here. Oligonucleotides are written 5' to 3', each unit as a sugar letter and its base; * is a phosphorothioate linkage, no mark a phosphodiester; rarer units and linkages stand in square brackets, end groups in braces. Plain capitals give the bases only. e = 2'-O-(2-methoxyethyl) (MOE); [5mC] = 5-methylcytosine; d = 2'-deoxy (DNA)

What was measured:
[1] = in vivo
NSCLC = type: in vivo, human; conditions: each group; loading doses then custirsen with a chemotherapeutic agent
Excerpt: At least 50 NSCLC patients are separated into two groups.

[2] = Phase I healthy volunteer study TV1011-DDI-102, 640 mg custirsen; type: in vivo
Excerpt: Three subjects withdrew from the study due to these constitutional symptoms.

[3] = Custirsen up-titration with dexamethasone premedication, tolerability and ECG Holter (discussion); conditions: with or without premedication with dexamethasone
[4] = system: RPMI 8226 (human myeloma) xenograft; assay: In vivo activity of custirsen (TV-1011), different doses and regimens with Bortezomib, RPMI 8226 xenograft (Example 15); conditions: for volume / weight / % of baseline (weight) / Δ % (weight) / Δ weight: group 8: TV-1011 30 mg/kg qd*5, 40 mg/kg biwk
Experimental: 120 CB.17 SCID female mice, 4-6 weeks old, 16-20 grams, obtained from Harlan animal breeding center.
Cells (originated from ATCC) were cultured on RPMI medium. Cell suspension was centrifuged and resuspended in 50% Matrigel/HBSS to a final concentration of 7×10^7 cells/ml. The suspension was implanted s.c. in the right flank of the anesthetized mouse at a volume of 100 μl.
Seven ml saline were added to the original vial containing 3.5 mg powder resulting in 0.5 mg/ml. Three ml of this solution were added to 27 ml saline to receive 0.05 mg/ml concentration. […] 28.5 ml of 4 mg/ml were added to 9.5 saline to receive 3 mg/ml.
Mice were implanted subcutaneously, with 7×10^6 RPMI 8226 cells/mouse (in 50% Martigel/HBSS) on Day 0. On day 21, mice were sorted by the optimal average tumor volume (˜130 mm3) and were allocated into eight groups of 10 mice each.
The treatment started on day 21 post implant, 0.2 ml per 20 grams v/w.
[formula] The analysis of weight gain and tumor volume progression was made using one-way ANOVA followed by Tukey post-hoc comparisons.

melanoma = type: in vivo, human; conditions: each group; loading doses then custirsen with a chemotherapeutic agent
Excerpt: At least 50 melanoma patients are separated into two groups.

renal cancer = type: in vivo, human; conditions: each group; loading doses then custirsen with a chemotherapeutic agent
Excerpt: At least 50 renal cancer patients are separated into two groups.

[5] = in vivo; remark: listed apart in the source
[6] = TV-1011 alone 30 mg/kg ip qd*5, then 40 mg/kg biwk, day 62
[7] = Day 21 (baseline), group Mean, n 10
[8] = Day 21 (baseline), individual animals
[9] = Day 28 vs Day 21, group Mean, n 10
[10] = Day 28 vs Day 21, individual animals
[11] = Day 33 vs Day 21, group Mean, n 10
[12] = Day 33 vs Day 21, individual animals
[13] = Day 41 vs Day 21, group Mean, n 10
[14] = Day 41 vs Day 21, individual animals
[15] = group mean, n=10, day block 1 of 3
[16] = group mean, n=10, day block 2 of 3
[17] = group mean, n=10, day block 3 of 3
[18] = individual animals, day block 1 of 3
[19] = individual animals, day block 2 of 3
[20] = individual animals, day block 3 of 3

Custirsen: anti-clusterin antisense oligonucleotide CAGCAGCAGAGTCTTCATCAT, phosphorothioate backbone, 2′-O-methoxyethyl at nucleotides 1-4 and 18-21, 5-methylcytosines at 1, 4, 19 (antisense e[5mC]*eA*eG*e[5mC]*dA*dG*dC*dA*dG*dA*dG*dT*dC*dT*dT*dC*dA*eT*e[5mC]*eA*eT; listed as Homo sapiens)
grade-4 liver toxicity [1]: no reports
incidence of elevated liver function tests (ELFTs) [1]: higher incidence
cancer condition of patients (NSCLC): improves
time of peak of prolonged coagulation parameters after dose ([2]; human, in vivo): around 48 hours
coagulation parameters (PTT and PT) ([2]; most subjects, starting a few hours after the first loading dose): Slightly prolonged
AEs related to custirsen ([2]; multiple 640 mg doses, after the first infusion): 93 AEs
deaths or other SAEs ([2]; single and repeated doses of 640 mg custirsen, healthy volunteers): No deaths or other SAEs were reported; also recorded: no SAEs
effect of up-titration (reduced loading doses) on constitutional syndrome / side effects [3]: mitigated
efficacy, in words ([4]; Custirsen 30 mg/kg qdx5 then 40 mg/kg biwk, alone): very efficacious
effect of continuous treatment versus loading only ([4]; Custirsen with Velcade, maintained vs loading only): dose-dependent and results in better outcome versus loading only
Max BW (mean) reduction ([4]; TV-1011 alone 30 mg/kg ip qd*5, then 40 mg/kg biwk, day 28): −0.5%
% TGI [4, 6]: 67%
No. of CR [4, 6]: 0
No. of PR [4, 6]: 1
No. of TRD [4, 6]: 0
No. og nTRD [4, 6]: 0
Δ mean tumor volume, (mean ± se) [4, 6]: 574 ± 118
% TGI ([4]; TV-1011 alone 30 mg/kg ip qd*5, then 40 mg/kg biwk, day 62, listed as TV-1011): 67*** %
volume [4, 7]: 129.3
weight [4, 7]: 18.8
volume [4, 8]: 107 and 113 and 116 and 119 and 123 and 128 and 131 and 138 and 147 and 172
weight [4, 8]: 21.4 and 17.7 and 20.5 and 15.9 and 19.6 and 20.3 and 17.9 and 16.6 and 20.1 and 17.8
% of baseline (weight) ([4]; Day 28, group Mean, n 10): 99.5%
volume ([4]; Day 28, group Mean, n 10): 158.1
weight ([4]; Day 28, group Mean, n 10): 18.7
% of baseline (weight) ([4]; Day 28, individual animals): 98.0% and 104.0% and 102.6% and 95.2% and 96.9% and 94.4% and 103.0% and 98.7% and 98.3%
volume ([4]; Day 28, individual animals): 78 and 127 and 114 and 149 and 180 and 204 (2×) and 159 and 175 and 193
weight ([4]; Day 28, individual animals): 21.0 and 118.5 and 21.3 and 16.3 and 18.7 and 19.6 and 16.9 and 17.1 and 19.9 and 17.5
Δ % (weight) [4, 9]: −0.5%
Δ weight [4, 9]: −0.1
Δ % (weight) [4, 10]: −2.0% and 4.4% and 4.0% and 2.6% and −4.8% and −3.1% and 5.6% and 3.0% and −1.3% and −1.7%
Δ weight [4, 10]: −0.4 and 0.8 (2×) and 0.4 and −0.9 and −0.6 and −1.0 and 0.5 and −0.3 (2×)
% of baseline (weight) ([4]; Day 33, group Mean, n 10): 101.6%
volume ([4]; Day 33, group Mean, n 10): 147.0
weight ([4]; Day 33, group Mean, n 10): 19.1
% of baseline (weight) ([4]; Day 33, individual animals): 97.8% and 108.3% and 108.1% and 95.9% and 94.0% and 101.3% and 98.3% and 105.5% and 99.9% and 107.3%
volume ([4]; Day 33, individual animals): 132 and 131 and 120 and 116 and 167 and 157 and 100 and 154 and 206 and 186
weight ([4]; Day 33, individual animals): 20.9 and 19.2 and 22.1 and 15.2 and 18.4 and 20.5 and 17.6 and 17.5 and 20.1 and 19.1
Δ % (weight) [4, 11]: 1.6%
Δ weight [4, 11]: 0.3
Δ % (weight) [4, 12]: −2.2% and 8.3% and 8.1% and −4.1% and −6.0% and 1.3% and −1.7% and 5.5% and −0.1% and 7.3%
Δ weight [4, 12]: −0.5 and 1.5 and 1.7 and −0.6 and −1.2 and 0.3 and −0.3 and 0.9 and 0.0 and 1.3
% of baseline (weight) ([4]; Day 41, group Mean, n 10): 106.8%
volume ([4]; Day 41, group Mean, n 10): 184.3
weight ([4]; Day 41, group Mean, n 10): 20.0
% of baseline (weight) ([4]; Day 41, individual animals): 101.4% and 112.9% and 111.2% and 108.4% and 102.9% and 102.3% and 105.9% and 112.3% and 106.7% and 103.9%
volume ([4]; Day 41, individual animals): 76 and 144 and 140 and 139 and 336 and 249 and 152 and 185 and 223 and 200
weight ([4]; Day 41, individual animals): 21.7 and 20.0 and 22.8 and 17.2 and 20.2 and 20.7 and 18.9 and 18.7 and 21.5 and 18.5
Δ % (weight) [4, 13]: 6.8%
Δ weight [4, 13]: 1.2
Δ % (weight) [4, 14]: 1.4% and 12.9% and 11.2% and 8.4% and 2.9% and 2.3% and 5.9% and 6.7% and 3.9%
Δ weight [4, 14]: 0.3 and 2.3 (2×) and 1.3 (2×) and 0.6 and 0.5 and 1.1 and 2.0 and 0.7
% of baseline (weight) [4, 15]: 113.8%
volume [4, 15]: 344.4
Δ % (weight) [4, 15]: 13.8%
Δ weight [4, 15]: 2.5
weight ([4]; group mean, n=10, day block 1 of 3 (day head not shown)): 21.3
% of baseline (weight) [4, 16]: 109.2%
volume [4, 16]: 476.6
weight [4, 16]: 20.4
Δ % (weight) [4, 16]: 9.2%
Δ weight [4, 16]: 1.7
% of baseline (weight) [4, 17]: 111.5%
volume [4, 17]: 702.9
weight [4, 17]: 20.9
Δ % (weight) [4, 17]: 11.5%
Δ weight [4, 17]: 2.1
% of baseline (weight) [4, 18]: 108.5% and 116.7% and 112.9% and 120.7% and 110.1% and 107.6% and 114.4% and 123.3% and 115.7% and 108.4%
volume [4, 18]: 101 and 360 and 268 and 267 and 556 and 581 and 211 and 257 and 451 and 392
Δ % (weight) [4, 18]: 8.5% and 16.7% and 12.9% and 20.7% and 10.1% and 7.6% and 14.4% and 23.3% and 15.7% and 8.4%
Δ weight [4, 18]: 1.8 and 3.0 and 2.6 (2×) and 3.3 and 2.0 and 1.5 (2×) and 3.9 and 3.2
weight ([4]; individual animals, day block 1 of 3 (day head not shown)): 23.2 and 20.6 and 23.1 and 19.1 and 21.6 and 21.8 and 20.5 (2×) and 23.3 and 19.3
% of baseline (weight) [4, 19]: 103.3% and 116.7% and 109.7% and 122.9% and 103.1% and 104.0% and 106.1% and 114.0% and 108.4% and 103.7%
volume [4, 19]: 106 and 638 (2×) and 463 and 399 and 767 and 663 and 257 and 246 and 588
weight [4, 19]: 22.1 and 20.7 and 22.4 and 19.5 and 20.2 and 21.1 and 19.0 (2×) and 21.8 and 18.4
Δ % (weight) [4, 19]: 3.3% and 16.7% and 9.7% and 22.9% and 3.1% and 4.0% and 6.1% and 14.0% and 8.4% and 3.7%
Δ weight [4, 19]: 0.7 (2×) and 3.0 and 2.0 and 3.6 and 0.6 and 0.8 and 1.1 and 2.3 and 1.7
% of baseline (weight) [4, 20]: 105.9% and 121.8% and 111.4% and 118.7% and 106.2% and 107.1% and 106.8% and 119.0% and 112.4% and 106.3%
volume [4, 20]: 92 and 955 and 891 and 568 and 1324 and 804 and 379 and 273 and 1001 and 742
weight [4, 20]: 22.7 and 21.5 and 22.8 and 18.8 and 20.8 and 21.7 and 19.1 and 19.8 and 22.6 and 18.9
Δ % (weight) [4, 20]: 5.9% and 21.8% and 11.4% and 18.7% and 6.2% and 7.1% and 6.8% and 19.0% and 12.4% and 6.3%
Δ weight [4, 20]: 1.3 and 3.9 and 2.3 and 3.0 and 1.2 (2×) and 1.4 and 3.2 and 2.5 and 1.1
cancer condition of patients (melanoma): improves
cancer condition of patients (renal cancer): improves
incidence of the most common adverse events (fatigue, chills, nausea, pyrexia, etc.) [5]: more than 20 % of the patients
occurrence of grade 3/4 renal toxicity [5]: rare
